One data set relates to HT1080-TfR1KD cells. The data set can be described thus: Drug sensitivity after shRNA knockdown of TfR1. Format: cell-based, human. Conditions: alamar blue. As for the experimental part: (§1) On day one, 3×10^5 Calu-1 cells or 2×10^5 HT1080 cells were seeded in 10-cm dishes; on day 2, frozen virus stock was thawed at 37° C., hexadimethrine bromide (polybrene) (Sigma, cat.#H9268) was added to the virus solution at a final concentration of 8 μg/mL and growth media from cell culture was replaced with the virus/polybrene mixture. The culture was returned to the tissue culture incubator for 2 hours, with rocking of the dishes every 30 min in order to prevent drying. After 2 h, 10 mL growth medium was added, the culture was incubated for 2 days, and cells stably expressing shRNA were selected by adding puromycin (Sigma, cat.#P9620) at a final concentration of 1.5 μg/mL.
(§2) On the day of experiment, assay plates were prepared by seeding 3,000 HT1080, HT1080-pLKO, HT1080-TfR1 KD, Calu-1, Calu-1-pLKO, or Calu-1-509 cells per well in 36 μL of growth media to black, clear bottom 384-well plates. Also, assay plates were prepared by seeding 1,500 shRNA infected HT1080 or Calu-1 cells per well. Cells in assay plates were treated with each lethal compound in a 2-fold dilution series by transferring 4 μL solution from a 10× lethal plate of Erastin, Compound 3, Compound 27, or Compound 36. […] Percent growth inhibition (% GI) was calculated using fluorescence intensity values.
Background: Resazurin is reduced to fluorescent resorufin, in cell work by metabolically active cells.

For data set [1], the system named is 60 different human cancer cell lines (the NCI60 panel). The data set can be described thus: NCI60 anti-cancer screening, whole panel. Format: cell-based. As for the experimental part:
NCI60 anti-cancer screening (“NCI60 test”) is a system that provides an opportunity to assess a drug candidate's potency and selectivity at a relatively early stage of drug discovery. […] Such compounds would be expected to kill sensitive cancer cells while having minimal effect on healthy cells in a predetermined concentration range. NCI60 anti-cancer screening makes use of 60 cancer cell lines from different human tissue origins. Cells are seeded on a 96-well plate, treated with lethal compounds in 5-point, 10-fold dilution series pattern starting at 100 μM (i.e. 10 nM, 100 nM, 1 μM, 10 μM, 100 μM) for 2 days, and measured for cell viability using sulforhodamine B dye. The optical densities of treated samples are determined using a plate reader and percent growth value is calculated by processing the optical density value.
The entire NCI60 test is replicated at least twice to ensure consistency of the data and to determine accurate GI50, TGI and LC50 values. The panel of results for each candidate compound in the NCI60 test is known as the “sensitivity profile.”

The next data set has as its system NCI-H226. The data set can be described thus: NCI60 anti-cancer screening. Conditions: for GI50 / CC50: Homo sapiens; for GI50 / GI 100%: NCI-H226; for CC50: NCI-H226, read-out: LC 50%; for GI 100%: Non-small cell lung carcinoma.
The test system of data set [2] is BJeH, BJeHLT, BJeLR and DRD cells. The data set can be described thus: Cell growth inhibition by stereoisomers of Compound 27. Conditions: Homo sapiens.
The test system of the next data set is HT1080 cells. As to the kind of experiment: Alamar blue assay with bioactive suppressors in HT1080. The class given is cell-based, human. Conditions: 150 μM DFOM, 10 μM U0126, 50 μM SU6656, or 100 μM Vitamin E. As for the experimental part: as §2
Another data set concerns IGROV1. The data set can be described thus: NCI60 anti-cancer screening. Conditions: for GI50 / CC50: Homo sapiens; for GI50: IGROV-1; for CC50: IGROV-1, read-out: LC 50%; for GI 100%: IGROV1, Ovarian Cancer.
In data set [3] the test system is Calu-1 cells expressing shRNAs targeting HRAS, NRAS or KRAS. As to the kind of experiment: Drug sensitivity after shRNA knockdown of RAS. Format: cell-based, human. Conditions: alamar blue. Here is the method: as §1, §2
In the next data set the test system is SNB-19. The data set can be described thus: NCI60 anti-cancer screening. Conditions: for GI50 / CC50: Homo sapiens; for GI50 / GI 100%: SNB-19; for CC50: SNB-19, read-out: LC 50%; for GI 100%: CNS Cancer.
Data set [4] in a line: Maximum tolerated dose in mice. Format: in vivo. Conditions: mouse, in vivo, ip, single intraperitoneal injection in sterile PBS. Here is the method:
(§3) The maximum tolerated dose of Compound 27 was tested in mice.
(§4) Each mouse in the study was administered a single intraperitoneal injection of Compound 27 dissolved in sterile PBS at 100 mg/kg, 200 mg/kg, or 400 mg/kg.

The test system of another data set is mice. As to the kind of experiment: Maximum tolerated dose in mice. Format: in vivo. Conditions: single intraperitoneal injection at 100, 200 or 400 mg/kg. As for the experimental part: as §3, §4
A further data set has as its system CAKI-1. The data set can be described thus: NCI60 anti-cancer screening. Conditions: for GI 100% / GI50: CAKI-1; for GI 100%: Renal Cancer; for GI50 / CC50: Homo sapiens; for CC50: CAKI-1, read-out: LC 50%.
For another data set, the system named is NCI-H460. As to the kind of experiment: NCI60 anti-cancer screening. Conditions: for GI50 / CC50: Homo sapiens; for GI50 / GI 100%: NCI-H460; for CC50: NCI-H460, read-out: LC 50%; for GI 100%: Non-small cell lung carcinoma.
For data set [5], the system named is BJ-TERT/LT/ST/RAS^V12 cells. As to the kind of experiment: Effect of cell cycle inhibitors on Compound 36-induced cell death. The class given is cell-based, human. Conditions: apigenin, monastrol, olomoucine, nocodazole, hydroxyurea, colchicine, rapamycin. As for the experimental part: BJ-TERT/LT/ST/RAS^V12 cells were seeded in a 384-well assay plate at a concentration of 4,000 cells per well in 32 μL culture volume. Cells were treated with cell cycle inhibitors by transferring 4 μL of 500 μM apigenin (Sigma, cat.#A3145), 1.5 mM monastrol (Sigma, cat.#M8515), 1 mM olomoucine (Sigma, cat.#00886), 2 μM Nocodazole (Sigma, cat.#M1404), 6 mM Hydroxy-urea (Sigma, cat.#H8627), 0.1 μM colchicine (Sigma, cat.#D6165), or 50 μM Rapamycine (Sigma, cat.#RO395) in growth media to the assay plate. […] The assay plate was incubated for 24 hours and alamar blue was added to the assay plate at a final concentration of 10%.

In a further data set the test system is HOP-62. As to the kind of experiment: NCI60 anti-cancer screening. The class given is cell-based. Conditions: Non-small cell lung carcinoma.

Molecules are shown by their SMILES. Several values for one entry are separate records, joined by “and”; a condition that tells them apart may be missing. Equal entries are not always repeated. Entries after “also recorded” stand apart in the source; their conditions may differ.

Here are results for three compounds from patent US8546421B1, “Oncogenic-RAS-signal dependent lethal compounds” (The Trustees of Columbia University in the City of New York, priority 2007, dated 2013).

In general, GI50 refers to the concentration giving 50% growth inhibition. A lower GI50 goes with greater sensitivity of the cells. As usually defined, the EC50 is the concentration at which the effect is half-maximal. For orientation: MTD means the largest dose that counted as tolerated. By LC50 is commonly meant the concentration lethal to half of the exposed cells or organisms.

As for `COCCOC(=O)C1=C(C)NC2=C(C(=O)CC(c3ccc(Cl)cc3)C2)C1c1ccccc1F` (stereo not shown) [Compound 3], the “sensitivity of HT1080-TfR1KD cells compared with parental HT1080” value in the data set with HT1080-TfR1KD cells is on record as “decreased sensitivity”.

As to `COC(=O)c1ccc(C2c3[nH]c4ccccc4c3CC(C(=O)OC)N2C(=O)CCl)cc1` (stereo not shown) [Compound 27], the “difference in sensitivity between resistant and sensitive cell lines” value in [1] was “up to 10^4 fold”. The “potency / selectivity in NCI60 (in words)” value in data set [1] is given as “nanomolar (nM) concentration range”. Further, the GI50 was 688 nM in the data set on NCI-H226; 20.9 nM with IGROV1; 2350 nM in the data set on SNB-19; 21.1 nM in the data set on CAKI-1; 1430 nM in the data set on NCI-H460. Further, the CC50 was over 10000 nM in the data set on NCI-H226; 270 nM in the data set on IGROV1; over 10000 nM in the data set on SNB-19; 68.7 nM in the data set on CAKI-1; 6740 nM with NCI-H460. Further, the “GI 100%” value came to 2.79 µM in the data set on NCI-H226; 0.0571 µM in the data set on IGROV1; 7.41 µM in the data set with SNB-19; 0.0381 µM with CAKI-1; 3.11 µM with NCI-H460. Besides, in [2], the EC50 was ~0.05 µg/mL and ~100 nM. Besides, the “treatments that inhibit compound-induced cell death in HT1080 cells” value in the data set on HT1080 cells was “iron chelators, MEK inhibitors or non-receptor tyrosine kinase inhibitors effectively inhibited”. In addition, in [3], the “sensitivity of Calu-1 cells after RAS shRNA compared with parental cells” value is given as “more resistant; also recorded: less effective”. The compound also returned an MTD in data set [4] of over 400 mg/kg. Further, the mortality entry in the data set on mice is listed as “None of the mice died”.

With `C=C1CCC2C(C)(C)CCC[C@]2(C)C1CC/C(C)=C\CC/C(C)=N/NC(N)=S` (stereo partly shown) [Compound 36], the “effect of cell cycle blockers on compound-induced cell death” value in data set [5] is listed as “None of cell cycle blockers were effective”. For the same compound, the GI50 in the data set on NCI-H226 came to 480 nM; in the data set with IGROV1 it was 254 nM; in the data set on SNB-19 it was 1050 nM; in the data set on HOP-62 (Homo sapiens) it was 405 nM; with CAKI-1, 165 nM; in the data set on NCI-H460 it was 626 nM. For the same compound, the CC50 in the data set with NCI-H226 is 4550 nM; in the data set on IGROV1, 4170 nM; with SNB-19, 5000 nM; with CAKI-1, 1080 nM; with NCI-H460 it was 5020 nM. Also, the “GI 100%” value was determined as 1.66 µM with NCI-H226; 1.28 µM in the data set on IGROV1; 2.29 µM in the data set on SNB-19; 1.42 µM in the data set with HOP-62; 0.413 µM in the data set on CAKI-1; 2.02 µM in the data set with NCI-H460. In the data set on HT1080-TfR1KD cells, the “sensitivity of HT1080-TfR1KD cells compared with parental HT1080” value is reported as “decreased sensitivity”. Besides, the LC50 in the data set with HOP-62 (Homo sapiens) was 3770 nM.
